Reference: US20230086099A1, “COMBINATION THERAPY FOR TREATMENT OF CANCER AND CANCER METASTASIS” (ONA Therapeutics, S.L., priority 2020, published 2023)

B1: ONA-0: anti-CD36 antibody ONA-0 (also known as ONA-0-v1; as described in U.S. Patent Application No. 63/117,529) (antibody)
heavy: QVQLKQSGADLVRPGASVKLSCKASGYTFTDYYINWVKQRPGQGLEWIARIYPGSGNTYYNEKFKGKATLTAEKSSSTAYMQLSSLTSEDSAVYFCARGIGGGFGMDYWGQGTSVTVSSESARNPTIYPLTLPPVLCSDPVIIGCLIHDYFPFGTMNVTWGKSGKDITTVNFPPALASGGRYTMSSQLTLPAVECPEGESVKCSVQHDSNPVQELDVNCSPTPPPPITIPSCQPSLSLQRPALEDLLLGSDASITCTLNGLRNPEGAAFTWEPSTGKDAVQKKAAQNSCGCYSVSSVLPGCAERWNSGASFKCTVTHPESGTLTGTIAKVTVNTFPPQVHLLPPPSEELALNELLSLTCLVRAFNPKEVLVRWLHGNEELSPESYLVFEPLKEPGEGATTYLVTSVLRVSAETWKQGDQYSCMVGHEALPMNFTQKTIDRLSGKPTNVSVSVIMSEGDGICY
light: SIVMTQTPKFLLVSAGDRITITCKASQSVSDDVAWYQQKPGQSPKLLIYYASNRYTGVPDRFTGSGYGTDFTFTISTVQAEDLAVYFCQQDYSSPLTFGAGTKLEIKRADAAPTVSIFPPSSEQLTSGGASVVCFLNNFYPKDINVKWKIDGSERQNGVLNSWTDQDSKDSTYSMSSTLTLTKDEYERHNSYTCEATHKTSTSPIVKSFNRNEC

Key:
[1] = test system: Detroit oral cancer cells; assay: Detroit oral cancer cells inoculated in NSG mice: anti-CD36 antibody with cisplatin; assay type: in vivo; settings: lung metastases from oral cancer, H&E staining of the lungs; FIGS. 2, 3A-3B
Description: (§1) Studies on the combination of anti-CD36 antibody with cisplatin were performed in NSG mice (immuno-deficient) males and females (first experiment mice directly bought, follow up experiments in house breeding) All mice were inoculated with commercially available oral cancer cells Ab dosing was always done daily i.p.
(§2) Two types of oral cancer cell lines were inoculated: • Detroit: “medium” metastatic and very large primary tumor • FaDu: “very strong” metastatic and small primary tumor
(§3) 50,000 or 100,000 cancer cells were inoculated. The starting time of treatment was the amount of days after inoculation of the cancer cells Ab treatment starts.

OVCAR-3 cells = assay: OVCAR-3 orthotopic mouse model of ovarian cancer; assay type: in vivo, NSG mice
Description: Studies of the effects of the combination of ONA-0 anti-CD36 antibody and cisplatin on ovarian cancer were performed in NSG mice (immuno-deficient). The studies included only female mice. All mice were inoculated with commercially available OVCAR-3 (ATCC) cancer cells. OVCAR-3 cells were derived from a human progressive adenocarcinoma of the ovary (i.e., from an ovarian cancer). Prior to inoculation, the OVCAR-3 cells were cultured in a humidified incubator at 37° C. with 5% CO2, and were grown in RPMI-1640 supplemented with 5 μg ml^−1 penicillin/streptomycin, 0.01 mg/ml bovine insulin and 20% FBS (GIBCO). For each mouse, a piece of an OVCAR-3 xenograft was implanted orthotopically. Treatment of the implanted mice began 23 days after implantation with the OVCAR-3 tumor pieces. Inoculated mice were divided into one of two treatment groups: cisplatin injection control (n=9) or cisplatin in combination with ONA-0 treatment (n=8). Antibody treatments were administered via intraperitoneal (i.p.) injection daily at a dose of 3 mg/kg and cisplatin treatments were administered via intraperitoneal (i.p.) injection twice per week at a dose of 2 mg/kg (FIG. 7B). Mice were sacrificed at the end of the treatment period. Upon sacrifice, organs and tissues were collected for performance of immunohistochemistry analysis.

[2] = test system: FaDu cell line (oral cancer cell line); assay: FaDu oral cancer cells inoculated in NSG mice: lymph node metastases, ONA-0 with cisplatin; assay type: in vivo
Description: as §1, §2, §3

Molecule	lung metastases, size and number [1]	SR positive area (collagenous and fibrotic areas) of primary tumors (OVCAR-3 cells; Sirius red staining, FIG. 9C) [%]	primary tumor weight, average (OVCAR-3 cells; at sacrifice, FIG. 9B) [grams]	percent necrosis of primary tumors (OVCAR-3 cells; histology, blinded quantification by a pathologist, FIG. 9C)	percentage of mice with metastasis in the liver (OVCAR-3 cells; macroscopic, visual inspection, FIG. 8A) [%]	percentage of animals with metastasis in the peritoneal wall (OVCAR-3 cells; macroscopic, visual inspection, ONA-0 3 mg/kg i.p. daily, cisplatin 2 mg/kg i.p. twice per week, FIG. 8A) [%]	efficacy on lymph node metastases ([2]; study of FIGS. 4A-4E)	efficacy on lymph node metastasis ([2]; study of FIGS. 5A-5E and 6A-6B)
N.N.[Cl][Pt][Cl] [cisplatin]	reduces the size of metastases	27.45	0.468	approximately 14.2%	11	22	–	–
B1	–	–	–	–	–	–	demonstrates efficacy on lymph node metastases	effective as a monotherapy
